Source: patent US20140135319A1, “6-SUBSTITUTED IMIDAZOPYRAZINES FOR USE AS MPS-1 AND TKK INHIBITORS IN THE TREATMENT OF HYPERPROLIFERATIVE DISORDERS” (BAYER INTELLECTUAL PROPERTY GMBH, priority 2010, published 2014)

Target: T1, human kinase Mps-1 (Homo sapiens, UniProt P33981)
T1 construct: N-terminally GST-tagged human full length recombinant Mps-1 kinase; GST (N); purchased Invitrogen, Karslruhe, Germany PV4071
T1 sequence (P33981 1-857): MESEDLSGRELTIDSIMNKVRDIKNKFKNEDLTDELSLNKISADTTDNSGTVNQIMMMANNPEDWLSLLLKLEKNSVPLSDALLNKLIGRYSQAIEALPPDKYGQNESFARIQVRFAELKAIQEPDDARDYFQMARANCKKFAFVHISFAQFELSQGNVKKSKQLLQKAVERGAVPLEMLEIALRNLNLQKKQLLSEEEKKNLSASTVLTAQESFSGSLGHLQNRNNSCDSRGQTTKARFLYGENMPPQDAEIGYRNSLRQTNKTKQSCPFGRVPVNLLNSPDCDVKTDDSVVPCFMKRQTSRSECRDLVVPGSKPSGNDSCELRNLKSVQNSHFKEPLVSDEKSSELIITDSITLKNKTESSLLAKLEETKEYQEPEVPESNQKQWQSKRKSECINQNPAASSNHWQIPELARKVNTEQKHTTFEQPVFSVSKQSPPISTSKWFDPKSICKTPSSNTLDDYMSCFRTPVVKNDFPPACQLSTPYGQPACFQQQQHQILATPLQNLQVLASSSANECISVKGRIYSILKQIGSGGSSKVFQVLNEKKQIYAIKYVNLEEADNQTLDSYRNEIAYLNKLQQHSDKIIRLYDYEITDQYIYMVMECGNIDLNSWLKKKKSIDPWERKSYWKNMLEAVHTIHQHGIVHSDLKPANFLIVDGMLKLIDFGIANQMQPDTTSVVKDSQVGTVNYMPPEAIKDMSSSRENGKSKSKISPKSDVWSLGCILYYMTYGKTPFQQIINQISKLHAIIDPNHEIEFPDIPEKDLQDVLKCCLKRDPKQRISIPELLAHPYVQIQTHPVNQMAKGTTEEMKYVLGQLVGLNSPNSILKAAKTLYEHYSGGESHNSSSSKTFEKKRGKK
Test: Mps-1 kinase assay (TR-FRET)
Assay type: biochemical
Conditions: GST-tagged human full length recombinant Mps-1; 10 μM ATP; 1 μM peptide substrate; 60 min at 22° C.
In short: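 TR-FRET read-out: after 1 h binding at 22° C, Eu-labelled anti-phospho-Ser/Thr antibody transfers to SA-XLent on the phosphorylated biotinylated peptide. The enzyme is GST-tagged full-length human Mps-1, typically about 1 nM final, in the linear range.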

Row | SMILES | IC50
1 | Cc1ccc(-c2cn3c(-c4ccc(C(=O)NC5CC5)cc4)cnc3c(NCC(C)(C)O)n2)cc1CC(N)=O [Example 1-99, 4-{6-[3-(2-Amino-2-oxo-ethyl)-4-methylphenyl]-8-[(2-hydroxy-2-methylpropyl)amino]imidazo[1,2-a]pyrazin-3-yl}-N-cyclopropylbenzamide] | 16.1 nM
2 | O=C(NC1CC1)c1ccc(-c2cnc3c(NCCCOCC4COCO4)nc(-c4ccccc4)cn23)cc1 (stereo not drawn) [Example 3-42, N-cyclopropyl-4-(8-{[3-(1,3-dioxolan-4-ylmethoxy)propyl]amino}-6-phenylimidazo[1,2-a]pyrazln-3-yl)benzamide] | 5.1 nM
3 | CC(C)CNc1nc(-c2cncnc2)cn2c(-c3ccc(C(=O)NC4CC4)cc3)cnc12 [Example 1-17, N-cyclopropyl-4-{8-[(2-methylpropyl)amino]-6-(pyrimidin-5-yl)imidazo [1,2-a]pyrazin-3-yl} benzamide] | 16.5 nM
4 | CC(C)CNc1nc(C2=CCSCC2)cn2c(-c3ccc(C(=O)NC4CC4)cc3)cnc12 [Example 1-28, N-cyclopropyl-4-{6-(3,6-dihydro-2H-thiopyran-4-yl)-8-[(2-methylpropyl)amino]imidazo[1,2-a]pyrazin-3-yl}benzamide] | 2 nM
5 | Cn1ccc(CNc2nc(-c3ccncc3)cn3c(-c4ccc(C(=O)NC5CC5)cc4)cnc23)n1 [Example 3-27, N-cyclopropyl-4-[8-{[(1-methyl-1H-pyrazol-3-yl)methyl]amino}-6-(pyridin-4-yl)imidazo [1,2-a]pyrazin-3-yl] benzamide] | 9.8 nM
6 | Cn1nccc1CNc1nc(-c2ccoc2)cn2c(-c3ccc(C(=O)NC4CC4)c(F)c3)cnc12 [Example 1-65, N-cyclopropyl-2-fluoro-4-[6-(furan-3-yl)-8-{[(1-methyl-1H-pyrazol-5-yl)methyl]amino}imidazo [1,2-a]pyrazin-3-yl] benzamide] | 4.3 nM
7 | O=C(NC1CC1)c1ccc(-c2cnc3c(NCc4c(F)cccc4F)nc(-c4ccncc4)cn23)cc1 [Example 3-15, N-cyclopropyl-4-{8-[(2,6-difluorobenzyl)amino]-6-(pyridin-4-yl)imidazo [1,2-a]pyrazin-3-yl} benzamide] | 2.7 nM
8 | CNC(=O)CCCCc1cn2c(-c3ccc(C(=O)NC4CC4)cc3)cnc2c(NCC(C)C)n1 [Example 7-5, N-cyclopropyl-4-{6-[5-(methylamino)-5-oxopentyl]-8-[(2-methylpropyl)amino]imidazo[1,2-a]pyrazin-3-yl} benzamide] | 6.5 nM
9 | CC(=O)NCc1ccc(-c2cn3c(-c4ccc(C(=O)NC5CC5)cc4)cnc3c(NCC(C)C)n2)cc1 [Example 1-18, 4-(6-{4-[(acetylamino)methyl]phenyl}-8-[(2-methylpropyl)amino]imidazo[1,2-a]pyrazin-3-yl)-N-cyclopropyl-benzamide] | 1.6 nM
10 | Cc1cc(-c2cnc3c(NCC4CC4C)nc(C4=CCOCC4)cn23)ccc1C(=O)NC1CC1 (stereo not drawn) [Example 6-16, N-cyclopropyl-4-[6-(3,6-dihydro-2H-pyran-4-yl)-8-{[(2-methylcyclo-propyl)methyl]amino}imidazo [1,2-a]pyrazin-3-yl]-2-methylbenzamide] | 8.6 nM
11 | Cc1cc(-c2cnc3c(NCCC4CCN(C)CC4)nc(C4=CCOCC4)cn23)ccc1C(=O)NC1CC1 [Example 6-14, N-cyclopropyl-4-[6-(3,6-dihydro-2H-pyran-4-yl)-8-{[2-(1-methyl-piperidin-4-yl)ethyl]amino}imidazo[1,2-a]pyrazin-3-yl]-2-methylbenzamide] | 293 nM
12 | Cc1ccc(-c2cn3c(-c4ccc(C(=O)NC5CC5)cc4)cnc3c(NCC(C)C)n2)cc1CC(N)=O [Example 1-87, 4-{6-[3-(2-amino-2-oxoethyl)-4-methylphenyl]-8-(isobutyl-amino)imidazo[1,2-a]pyrazin-3-yl}-N-cyclopropyl-benzamide] | 2.3 nM
13 | CC(C)CNc1nc(-c2cc3ccccc3s2)cn2c(-c3ccc(C(=O)NC4CC4)cc3)cnc12 [Example 1-12, 4-{6-(1-benzothiophen-2-yl)-8-[(2-methylpropyl)amino]imidazo[1,2-a]pyrazin-3-yl}-N-cyclo-propylbenzamide] | 142 nM
14 | Cc1cc(-c2cnc3c(NCCC(F)(F)F)nc(C4=CCOCC4)cn23)ccc1C(=O)NC1CC1 [Example 6-2, N-cyclopropyl-4-{6-(3,6-dihydro-2H-pyran-4-yl)-8-[(3,3,3-trifluoro-propyl)amino]imidazo[1,2-a]pyrazin-3-yl}-2-methylbenzamide] | 6.5 nM
15 | O=C(NC1CC1)c1ccc(-c2cnc3c(NCCCO)nc(-c4ccncc4)cn23)cc1 [Example 1-85, N-cyclopropyl-4-{8-[(3-hydroxypropyl)amino]-6-(pyridin-4-yl)imidazo[1,2-a]pyrazin-3-yl}benzamide] | 9.1 nM
16 | Cc1cc(-c2cnc3c(NCCC(F)(F)F)nc(Sc4ccccc4)cn23)ccc1C(=O)NC1CC1 [Example 15-2, N-cyclopropyl-2-methyl-4-{6-(phenylsulfanyl)-8-[(3,3,3-trifluoropropyl)amino]imidazo[1,2-a]pyrazin-3-yl}benzamide] | < 1 nM
17 | NCCCNc1nc(-c2ccncc2)cn2c(-c3ccc(C(=O)NC4CC4)c(Cl)c3)cnc12 [Example 1-101, 4-{8-[(3-Aminopropyl)amino]-6-(pyridin-4-yl)imidazo [1,2-a]pyrazin-3-yl}-2-chloro-N-cyclopropyl-benzamide] | 361 nM
18 | O=C(NC1CC1)c1ccc(-c2cnc3c(NC[C@@H](O)CO)nc(-c4ccncc4)cn23)cc1 [Example 3-37, N-cyclopropyl-4-{8-[(2,3-dihydroxypropyl)amino]-6-(pyridin-4-yl)imidazo [1,2-a]pyrazin-3-yl}benzamide] | 19.3 nM
19 | Cc1cc(-c2cn3c(-c4ccc(C(=O)NC5CC5)c(C)c4)cnc3c(NCCC(F)(F)F)n2)ccn1 [Example 1-68, N-cyclopropyl-2-methyl-4-{6-(2-methylpyridin-4-yl)-8-[(3,3,3-trifluoro-propyl)amino]imidazo [1,2-a]pyrazin-3-yl} benzamide] | 1.5 nM
20 | CC(C)CNc1nc(-c2csc3ccccc23)cn2c(-c3ccc(C(=O)NC4CC4)cc3)cnc12 [Example 1-14, 4-{6-(1-benzothiophen-3-yl)-8-[(2-methylpropyl)amino]imidazo[1,2-a]pyrazin-3-yl}-N-cyclo-propylbenzamide] | 6.9 nM
21 | NC(=O)Cc1cccc(-c2cn3c(-c4ccc(C(=O)NC5CC5)cc4)cnc3c(NCCCO)n2)c1 [Example 1-89, 4-{6-[3-(2-amino-2-oxo-ethyl)phenyl]-8-[(3-hydroxy-propyl)amino]imidazo[1,2-a]pyrazin-3-yl}-N-cyclopropyl-benzamide] | 4.8 nM
22 | O=C(NC1CC1)c1ccc(-c2cnc3c(NCCOCCOCCO)nc(-c4ccccc4)cn23)cc1 [Example 3-43, N-cyclopropyl-4-[8-({2-[2-(2-hydroxyethoxy)ethoxy]ethyl}amino)-6-phenylimidazo[1,2-a]pyrazin-3-yl]benzamide] | 17.8 nM
23 | CC(C)(O)CNc1nc(-c2ccncc2)cn2c(-c3ccc(C(=O)NC4CC4)c(F)c3)cnc12 [Example 1-57, N-cyclopropyl-2-fluoro-4-{8-[(2-hydroxy-2-methylpropyl)amino]-6-(pyridin-4-yl)imidazo [1,2-a]pyrazin-3-yl} benzamide] | 24.1 nM
24 | CC(=O)Nc1ccc(-c2cn3c(-c4ccc(C(=O)NC5CC5)cc4)cnc3c(NCC(C)C)n2)cn1 [Example 1-25, 4-{6-[6-(acetylamino)pyridin-3-yl]-8-[(2-methyl-propyl)amino]imidazo [1,2-a]pyrazin-3-yl}-N-cyclopropylbenzamide] | 8.9 nM
25 | CC(C)CNc1nc(-c2ccncc2)cn2c(-c3ccc(C(=O)NC4CC4)c(F)c3)cnc12 [Example 1-49, N-cyclopropyl-2-fluoro-4-{8-[(2-methylpropyl)amino]-6-(pyridin-4-yl)imidazo[1,2-a]pyrazin-3-yl}benzamide] | 3.7 nM
26 | CC(C)CNc1nc(C2=CCN(C)CC2)cn2c(-c3ccc(C(=O)NC4CC4)cc3)cnc12 [Example 1-27, N-cyclopropyl-4-{8-[(2-methylpropyl)amino]-6-(1-methyl-1,2,3,6-tetra-hydropyridin-4-yl)imidazo[1,2-a]pyrazin-3-yl}benzamide] | 7.5 nM
27 | Cc1cc(-c2cnc3c(NCC4CCN(C)C4)nc(C4=CCOCC4)cn23)ccc1C(=O)NC1CC1 (stereo not drawn) [Example 6-9, N-cyclopropyl-4-[6-(3,6-dihydro-2H-pyran-4-yl)-8-{[(1-methyl-pyrrolidin-3-yl)methyl]amino}imidazo[1,2-a]pyrazin-3-yl]-2-methylbenzamide] | 77.6 nM
